Key:
[1] = PEP; cited from earlier work
[2] = molecular target: T1, V-ATPase (Bos taurus, UniProt P31404+P31408); assay: Transmembrane potential generated (oxonol-V fluorescence quenching) in chromaffin granules; assay type: biochemical, cattle; conditions: role: inhibitor; 5 mM PEP, in presence of ATP, N=2
T1 construct: Chromaffin granule membranes were prepared from adrenal glands collected from slaughtered cattle; from tissue; host or cells: cattle adrenal glands, chromaffin granule membranes (sucrose density gradient)
T1 sequence (P31404 whole entry, looked up): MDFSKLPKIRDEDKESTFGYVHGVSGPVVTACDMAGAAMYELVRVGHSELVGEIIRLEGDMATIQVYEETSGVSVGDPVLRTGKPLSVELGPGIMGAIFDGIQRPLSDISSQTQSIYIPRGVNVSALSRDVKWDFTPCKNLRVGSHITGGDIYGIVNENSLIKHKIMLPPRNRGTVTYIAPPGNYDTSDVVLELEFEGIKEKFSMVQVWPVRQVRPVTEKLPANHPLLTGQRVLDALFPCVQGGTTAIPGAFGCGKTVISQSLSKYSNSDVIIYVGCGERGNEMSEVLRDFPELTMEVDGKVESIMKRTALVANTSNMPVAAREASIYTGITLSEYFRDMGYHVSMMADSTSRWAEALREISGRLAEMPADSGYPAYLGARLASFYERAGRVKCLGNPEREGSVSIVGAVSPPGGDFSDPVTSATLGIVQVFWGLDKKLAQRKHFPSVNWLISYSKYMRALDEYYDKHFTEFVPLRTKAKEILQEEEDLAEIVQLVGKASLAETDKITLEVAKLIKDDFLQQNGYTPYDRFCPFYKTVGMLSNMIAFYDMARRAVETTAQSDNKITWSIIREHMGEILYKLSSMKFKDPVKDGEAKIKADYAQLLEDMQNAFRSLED
T1 sequence (P31408 whole entry, looked up): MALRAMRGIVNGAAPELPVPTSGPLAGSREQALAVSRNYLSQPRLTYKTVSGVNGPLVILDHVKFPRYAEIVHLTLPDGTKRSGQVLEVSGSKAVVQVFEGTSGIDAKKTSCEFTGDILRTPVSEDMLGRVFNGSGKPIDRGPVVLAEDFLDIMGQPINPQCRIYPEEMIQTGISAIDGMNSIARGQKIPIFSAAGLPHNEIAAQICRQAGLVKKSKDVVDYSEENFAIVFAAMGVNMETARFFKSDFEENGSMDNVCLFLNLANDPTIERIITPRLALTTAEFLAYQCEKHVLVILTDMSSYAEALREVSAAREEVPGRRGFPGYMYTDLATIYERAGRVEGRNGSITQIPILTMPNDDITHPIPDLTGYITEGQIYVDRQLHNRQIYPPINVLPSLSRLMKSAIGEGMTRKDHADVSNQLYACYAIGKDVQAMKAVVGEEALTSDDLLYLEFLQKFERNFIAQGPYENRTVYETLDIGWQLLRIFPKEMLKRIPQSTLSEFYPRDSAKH
Method: Chromaffin granule membranes were prepared from adrenal glands collected from slaughtered cattle according to Reference A (Nathan Nelson et al., 1988, Chromaffin Granule Proton Pump, Methods in Enzymology, 157, 619-633). Chromaffin granule membranes prepared by sucrose density gradient centrifugation were suspended in 2 ml of SME buffer (20 mM MOPS-tris (pH 7.0), 0.3 M sucrose, 5 mM EDTA, 10 μg/ml leupeptin, and 10 μg/ml pepstatin)+25% glycerol, and the resulting suspension was aliquoted and stored at −80° C. Under these conditions, the ATP transport activity, the V-ATPase activity, and the catecholamine transport activity remain fully active for at least one year.
ATP-dependent proton transport by V-ATPase was measured according to Reference B. Proton transport activity was measured using a spectrofluorometer at excitation wavelength of 492 nm and a fluorescence wavelength 540 nm, wherein fluorescence quenching of acridine orange was used as an index (N=2). The transmembrane potential generated was measured using a spectrofluorometer at an excitation wavelength of 580 nm and a fluorescence wavelength of 630 nm, wherein fluorescence quenching of oxonol-V was used as an index (N=2). […]

[3] = test system: isolated chromaffin granules; conditions: role: inhibitor; 1 to 10 mM PEP; cited from earlier work
[4] = test system: VNUT; conditions: known; cited from earlier work
[5] = test system: ATP secretion; conditions: known; cited from earlier work
[6] = test system: mouse auricle; assay: Imiquimod-induced psoriasis model, oral imeglimin (Example 18); assay type: in vivo
Method: Experimental psoriatic symptoms were induced in a mouse auricle by imiquimod. Six-week-old male C57BL/6 mice (N=5) were acclimated for one week. On Days 1 to 7, 62.5 mg of 5% imiquimod cream (Beselna Cream 5%) (3.125 mg in terms of the active ingredient, manufactured by Mochida Pharmaceutical Co. Ltd.) was applied to the right auricle of the mice for 7 consecutive days (IMQ group). Once daily after the imiquimod application, the imeglimin administration group (IMQ+IMG group) received oral administration, at 40 mg/kg, of 500-mg Twymeeg (trademark) tablets (manufactured by Sumitomo Pharma Co. Ltd.) dissolved in physiological saline. The control group received an equal volume of physiological saline. On Day 8, the mice were euthanized by cervical dislocation, and auricle thickness was measured using a dial thickness gauge (manufactured by Adachi Sogyo Co., Ltd.).
Each excised mouse auricle was fixed in 4% paraformaldehyde at 4° C. overnight. After ethanol substitution, the auricle was embedded in paraffin, sectioned using a rotary microtome Leica RM2165 (thickness, […]), and subjected to HE staining or immunohistochemical staining. For the immunohistochemical staining, the sections were deparaffinized, washed in xylene, and rehydrated through graded alcohols. The sections were incubated in DAKO at 95° C. for 30 minutes. The sections were blocked at room temperature for 60 minutes and then incubated at room temperature for 2 hours to allow reaction with a TGM1 anti-rabbit polyclonal antibody (catalog number 12912-3-AP, manufactured by Proteintech). The sample was washed and then allowed to react with a secondary antibody (Alexa 544-conjugated secondary antibody (goat anti-rabbit IgG) (manufactured by Molecular Probes)) at room temperature for 60 minutes. After allowing reaction with DAPI at room temperature for 10 minutes, the sections were mounted with Fluoromount and imaged using a fluorescence microscope (BZ-X710, manufactured by Keyence).

[7] = 40 mg/kg oral once daily, Day 8, N=5 (FIG. 33)

## C=C(OP(=O)(O)O)C(=O)O [PEP, phosphoenolpyruvic acid]
[1]
  permeation of the cell membrane: freely permeate the cell membrane
[2]
  change in oxonol-V quenching level: did not change the level of quenching
[3]
  uptake of ATP into isolated chromaffin granules: inhibited

## O=P(O)(O)C(Cl)(Cl)P(=O)(O)O [clodronate]
[4]
  VNUT inhibition: known to be a VNUT inhibitor
[5]
  ATP secretion inhibitory action: known to have an ATP secretion inhibitory action

## C[C@@H]1N=C(N)NC(N(C)C)=N1 [imeglimin]
[6]; 40 mg/kg oral once daily (FIG. 36)
  inhibitory effect on psoriatic symptoms by TMG1 immunohistochemical images: supported by the immunohistochemical images of TMG1
[6]; [7]
  epidermal desquamation: eliminated epidermal desquamation
  psoriatic symptoms: reduced the psoriatic symptoms
[6]; 40 mg/kg oral once daily, N=5 (FIG. 34)
  imiquimod-induced auricle thickening: suppressed

Source: patent US20260306500A1, “METHOD OF INHIBITING ADENOSINE TRIPHOSPHATE SECRETION, METHOD OF INHIBITING HEPATIC STELLATE CELL ACTIVATION, METHOD OF DEACTIVATING HEPATIC STELLATE CELL, METHOD OF TREATING HEPATIC FIBROSIS, METHOD OF TREATING NON-ALCOHOLIC STEATOHEPATITIS, AND METHOD OF TREATING PSORIASIS” (Kurume University, priority 2023, published 2026)
